Assay results from patent publication US20250333406A1, “SULFONYL CYCLIC DERIVATIVES, AND COMPOSITIONS AND METHODS THEREOF” (Lysoway Therapeutics, Inc., priority 2023, published 2025).
Values belong to the compound of their own block, whether it stands above or below them.

Legend:
TFEB = TFEB Nuclear Translocation Assay; assay type: cell-based; details: read-out: EC50 of TFEB activation
TRPML3 = target: T1, TRPML3 (Homo sapiens, UniProt Q8TDD5); details: cited from earlier work
T1 sequence (Q8TDD5 1-553): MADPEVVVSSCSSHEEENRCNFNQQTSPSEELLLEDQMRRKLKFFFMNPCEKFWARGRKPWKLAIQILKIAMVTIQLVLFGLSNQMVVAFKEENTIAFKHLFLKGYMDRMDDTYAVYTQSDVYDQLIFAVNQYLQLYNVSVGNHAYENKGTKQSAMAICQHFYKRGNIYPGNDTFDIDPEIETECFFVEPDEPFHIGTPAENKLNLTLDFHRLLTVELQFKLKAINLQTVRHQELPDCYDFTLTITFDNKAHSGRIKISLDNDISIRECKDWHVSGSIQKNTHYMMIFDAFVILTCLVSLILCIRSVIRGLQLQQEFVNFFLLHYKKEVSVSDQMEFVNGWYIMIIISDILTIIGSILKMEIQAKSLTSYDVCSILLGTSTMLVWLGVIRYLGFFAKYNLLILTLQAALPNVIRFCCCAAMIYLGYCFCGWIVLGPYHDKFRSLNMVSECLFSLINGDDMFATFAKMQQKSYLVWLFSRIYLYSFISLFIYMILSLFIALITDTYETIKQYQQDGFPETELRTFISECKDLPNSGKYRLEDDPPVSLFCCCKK

ML1-4A = target: T2, ML1-4A (Homo sapiens, UniProt Q9GZU1, L15A/L16A); details: HEK293 cells stably or transiently expressing ML1-4A; cited from earlier work
T2 construct: host or cells: HEK293 (stably or transiently transfected)
T2 sequence (Q9GZU1 with tags, fused parts or gaps L15A/L16A limits assumed): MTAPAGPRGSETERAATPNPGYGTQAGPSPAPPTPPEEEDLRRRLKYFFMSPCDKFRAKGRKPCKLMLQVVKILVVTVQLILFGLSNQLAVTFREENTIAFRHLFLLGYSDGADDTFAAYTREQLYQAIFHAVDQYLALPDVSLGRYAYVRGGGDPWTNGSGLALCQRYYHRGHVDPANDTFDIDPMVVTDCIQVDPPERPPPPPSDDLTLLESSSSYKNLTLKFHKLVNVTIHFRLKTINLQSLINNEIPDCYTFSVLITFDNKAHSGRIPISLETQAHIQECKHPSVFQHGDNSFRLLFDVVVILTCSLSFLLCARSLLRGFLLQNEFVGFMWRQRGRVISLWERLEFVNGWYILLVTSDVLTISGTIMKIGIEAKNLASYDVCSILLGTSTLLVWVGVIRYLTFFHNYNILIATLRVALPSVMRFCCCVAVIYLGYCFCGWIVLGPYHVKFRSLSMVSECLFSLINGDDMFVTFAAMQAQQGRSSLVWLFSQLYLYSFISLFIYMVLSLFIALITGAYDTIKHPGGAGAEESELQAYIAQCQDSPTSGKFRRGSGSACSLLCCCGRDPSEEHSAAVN

[1] = target: T3, TRPML-like current (IML-L) (Homo sapiens, UniProt Q9GZU1); details: wild-type (WT; ML1+/+) human fibroblasts; cited from earlier work
T3 construct: endogenous in cells; host or cells: human fibroblasts (WT ML1+/+; ML4 ML1-/- as negative control)
T3 sequence (Q9GZU1 whole entry): as the sequence (Q9GZU1 with tags, fused parts or gaps L15A/L16A limits assumed) above, with A15L, A16L, A577L, A578L counted along it

[2] = tested on: TRPML-like current (IML-L); details: ML4 (ML1−/−) human fibroblasts; cited from earlier work
TRPML1 = details: cited from earlier work
TRPML2 = target: T4, TRPML2 (Homo sapiens, UniProt Q8IZK6); details: cited from earlier work
T4 sequence (Q8IZK6 1-566): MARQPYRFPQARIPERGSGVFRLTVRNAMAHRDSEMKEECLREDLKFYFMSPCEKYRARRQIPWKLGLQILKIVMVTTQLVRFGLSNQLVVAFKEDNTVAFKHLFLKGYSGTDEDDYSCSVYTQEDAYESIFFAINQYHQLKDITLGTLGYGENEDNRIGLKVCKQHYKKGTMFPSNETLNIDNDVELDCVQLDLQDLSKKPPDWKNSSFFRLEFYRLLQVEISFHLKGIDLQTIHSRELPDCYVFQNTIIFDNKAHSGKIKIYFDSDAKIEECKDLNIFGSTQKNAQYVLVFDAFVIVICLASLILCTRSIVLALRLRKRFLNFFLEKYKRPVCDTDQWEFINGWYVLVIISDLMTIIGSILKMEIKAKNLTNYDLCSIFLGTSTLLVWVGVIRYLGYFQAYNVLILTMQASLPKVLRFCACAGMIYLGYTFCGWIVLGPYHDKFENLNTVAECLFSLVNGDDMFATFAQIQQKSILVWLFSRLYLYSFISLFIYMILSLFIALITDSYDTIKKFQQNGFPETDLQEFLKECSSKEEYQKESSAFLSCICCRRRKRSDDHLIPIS

TRPMLs = details: cited from earlier work

EC50 (TFEB): 1 to 10 µM
Compound: CC(C)S(=O)(=O)c1nc(S(=O)(=O)n2nc(N3CCN(c4ncc(F)cc4F)CC34CC4)c3c(F)ccc(F)c32)cs1 [Compound 194, 4-[3-[7-(3,5-difluoro-2-pyridyl)-4,7-diazaspiro [2.5]octan-4-yl]-4,7-difluoro-indazol-1-yl]sulfonyl-2-isopropylsulfonyl-thiazole]

EC50 (TFEB): 1 to 10 µM
Compound: CC(C)S(=O)(=O)c1nc(S(=O)(=O)n2nc(N3CCN(c4ncc(F)cn4)CC34CC4)c3c(F)ccc(F)c32)cs1 [Compound 195, 4-((4,7-difluoro-3-(7-(5-fluoropyrimidin-2-yl)-4,7-diazaspiro 12.51 octan-4-yl)-1H-indazol-1-yl)sulfonyl)-2-(isopropylsulfonyl) thiazole]

EC50 (TFEB): ≤ 1 µM
Compound: CC(C)S(=O)(=O)c1nc(S(=O)(=O)n2nc(N3CCN(c4ncc(Cl)cc4F)CC34CC4)c3c(Cl)cccc32)cs1 [Compound 196, 4-((4-chloro-3-(7-(5-chloro-3-fluoropyridin-2-yl)-4,7-diazaspiro [2.5]octan-4-yl)-1H-indazol-1-yl)sulfonyl)-2-(isopropylsulfonyl) thiazole]

EC50 (TFEB): 1 to 10 µM
Compound: CC(C)S(=O)(=O)c1nc(S(=O)(=O)n2nc(N3CCN(c4ncc(F)cc4F)CC34CC4)c3c(Cl)cc(F)cc32)cs1 [Compound 197, 4-[4-chloro-3-[7-(3,5-difluoro-2-pyridyl)-4,7-diazaspiro [2.5]octan-4-yl]-6-fluoro-indazol-1-yl]sulfonyl-2-isopropylsulfonyl-thiazole]

EC50 (TFEB): 1 to 10 µM
Compound: CC(C)S(=O)(=O)c1nc(S(=O)(=O)n2nc(N3CCN(c4ncc(F)cc4F)CC34CC4)c3c(F)cc(F)cc32)cs1 [Compound 198, 4-((3-(7-(3,5-difluoropyridin-2-yl)-4,7-diazaspiro [2.5]octan-4-yl)-4,6-difluoro-1H-indazol-1-yl)sulfonyl)-2-(isopropylsulfonyl) thiazole]

EC50 (TFEB): ≤ 1 µM
Compound: CC(C)S(=O)(=O)n1ccc(S(=O)(=O)n2nc(N3CCN(c4ncc(F)cc4F)CC34CC4)c3c(Cl)cc(F)cc32)n1 [Compound 199, 4-chloro-3-[7-(3,5-difluoro-2-pyridyl)-4,7-diazaspiro [2.5]octan-4-yl]-6-fluoro-1-(1-isopropylsulfonylpyrazol-3-yl) sulfonyl-indazole]

EC50 (TFEB): ≥ 10 µM
Compound: CC(C)S(=O)(=O)n1cnc(S(=O)(=O)n2nc(N3CCN(c4ncc(F)cc4F)CC34CC4)c3c(F)cc(F)cc32)n1 [Compound 200, 3-(7-(3,5-difluoropyridin-2-yl)-4,7-diazaspiro [2.5]octan-4-yl)-4,6-difluoro-1-((1-(isopropylsulfonyl)-1H−1,2,4-triazol-3-yl)sulfonyl)-1H-indazole]

Compound: CC1CC(C)(C)N(C(=O)CN2C(=O)c3ccccc3C2=O)c2ccccc21 (stereo not drawn) [ML-SA1]
activation of whole-cell ITRPML3 (TRPML3): activated
[Ca2+]cyt increases (ML1-4A): significant [Ca2+]cyt increases
activation of whole-endolysosome IML-L [1]: activated
activation of whole-endolysosome IML-L [2]: not
activation of whole-endolysosome IML1 compared with PI(3,5)P2 (TRPML1; ML-SA1 10 μM, PI(3,5)P2 1 μM): comparable to the effect of the endogenous TRPML agonist PI(3,5)P2 (1 μM)
activation of whole-cell IML1-4A and whole-endolysosome IML1 (TRPML1): robustly activated
activation of whole-cell ITRPML2 (TRPML2): activated
concentration needed to effectively activate TRPMLs (TRPMLs): ~10 µM
